Assay results as given in US10485235B2, “Aryloxypyrimidinyl ethers as herbicides” (FMC Corporation, priority 2015, dated 2019).

test system: barnyardgrass (Echinochloa crus-galli); assay: Test A preemergence, barnyardgrass; type: in vivo; conditions: Preemergence, 31 g ai/ha; 0 to 100 scale (0 no effect, 100 complete control)
Source text: (§1) Seeds of plant species selected from barnyardgrass (Echinochloa crus-galli), kochia (Kochia scoparia), ragweed (common ragweed, Ambrosia elatior), ryegrass, Italian (Italian ryegrass, Lolium multiflorum), foxtail, giant (giant foxtail, Setaria faberii), and pigweed (Amaranthus retroflexus), were planted into a blend of loam soil and sand and treated preemergence with a directed soil spray using test chemicals formulated in a non-phytotoxic solvent mixture which included a surfactant.
(§2) At the same time, plants selected from these weed species and also wheat (Triticum aestivum), corn (Zea mays), blackgrass (Alopecurus myosuroides), and galium (catchweed bedstraw, Galium aparine), were planted in pots containing the same blend of loam soil and sand and treated with postemergence applications of test chemicals formulated in the same manner. Plants ranged in height from 2 to 10 cm and were in the one- to two-leaf stage for the postemergence treatment. Treated plants and untreated controls were maintained in a greenhouse for approximately 10 days, after which time all treated plants were compared to untreated controls and visually evaluated for injury. Plant response ratings, summarized in Table A, are based on a 0 to 100 scale where 0 is no effect and 100 is complete control. A dash (—) response means no test result.

Compound | Plant response rating, Barnyardgrass
N#Cc1cccc(Oc2ncc(F)cn2)c1OC/C=C/Cl [Compound 36] | 30

same assay, conditions: Preemergence, 125 g ai/ha; 0 to 100 scale (0 no effect, 100 complete control)

Compound | Plant response rating, Barnyardgrass
N#Cc1cccc(Oc2ncc(F)cn2)c1OC/C=C/Cl [Compound 36] | 80

test system: kochia (Kochia scoparia); assay: Test A preemergence, kochia; type: in vivo; conditions: Preemergence, 31 g ai/ha; 0 to 100 scale (0 no effect, 100 complete control)
Source text: as §1, §2

Compound | Plant response rating, Kochia
N#Cc1cccc(Oc2ncc(F)cn2)c1OC/C=C/Cl [Compound 36] | 10

same assay, conditions: Preemergence, 125 g ai/ha; 0 to 100 scale (0 no effect, 100 complete control)

Compound | Plant response rating, Kochia
N#Cc1cccc(Oc2ncc(F)cn2)c1OC/C=C/Cl [Compound 36] | 100

test system: ragweed (common ragweed, Ambrosia elatior); assay: Test A preemergence, ragweed; type: in vivo; conditions: Preemergence, 31 g ai/ha; 0 to 100 scale (0 no effect, 100 complete control)
Source text: as §1, §2

Compound | Plant response rating, Ragweed
N#Cc1cccc(Oc2ncc(F)cn2)c1OC/C=C/Cl [Compound 36] | 0

same assay, conditions: Preemergence, 125 g ai/ha; 0 to 100 scale (0 no effect, 100 complete control)

Compound | Plant response rating, Ragweed
N#Cc1cccc(Oc2ncc(F)cn2)c1OC/C=C/Cl [Compound 36] | 0

test system: ryegrass, Italian (Italian ryegrass, Lolium multiflorum); assay: Test A preemergence, Italian ryegrass; type: in vivo; conditions: Preemergence, 31 g ai/ha; 0 to 100 scale (0 no effect, 100 complete control)
Source text: as §1, §2

Compound | Plant response rating, Ryegrass, Italian
N#Cc1cccc(Oc2ncc(F)cn2)c1OC/C=C/Cl [Compound 36] | 0

same assay, conditions: Preemergence, 125 g ai/ha; 0 to 100 scale (0 no effect, 100 complete control)

Compound | Plant response rating, Ryegrass, Italian
N#Cc1cccc(Oc2ncc(F)cn2)c1OC/C=C/Cl [Compound 36] | 0

test system: foxtail, giant (giant foxtail, Setaria faberii); assay: Test A preemergence, giant foxtail; type: in vivo; conditions: Preemergence, 31 g ai/ha; 0 to 100 scale (0 no effect, 100 complete control)
Source text: as §1, §2

Compound | Plant response rating, Foxtail, Giant
N#Cc1cccc(Oc2ncc(F)cn2)c1OC/C=C/Cl [Compound 36] | 30

same assay, conditions: Preemergence, 125 g ai/ha; 0 to 100 scale (0 no effect, 100 complete control)

Compound | Plant response rating, Foxtail, Giant
N#Cc1cccc(Oc2ncc(F)cn2)c1OC/C=C/Cl [Compound 36] | 90

test system: pigweed (Amaranthus retroflexus); assay: Test A preemergence, pigweed; type: in vivo; conditions: Preemergence, 31 g ai/ha; 0 to 100 scale (0 no effect, 100 complete control)
Source text: as §1, §2

Compound | Plant response rating, Pigweed
N#Cc1cccc(Oc2ncc(F)cn2)c1OC/C=C/Cl [Compound 36] | 100

same assay, conditions: Preemergence, 125 g ai/ha; 0 to 100 scale (0 no effect, 100 complete control)

Compound | Plant response rating, Pigweed
N#Cc1cccc(Oc2ncc(F)cn2)c1OC/C=C/Cl [Compound 36] | 100

test system: barnyardgrass (Echinochloa crus-galli); assay: Test A postemergence, barnyardgrass; type: in vivo; conditions: 31 g ai/ha, postemergence; 0 to 100 scale, 0 is no effect, 100 is complete control; approximately 10 days
Source text: as §1, §2

Compound | Plant response rating, Barnyardgrass
N#Cc1cccc(Oc2ncc(F)cn2)c1OC/C=C/Cl [Compound 36] | 0

same assay, conditions: 125 g ai/ha, postemergence; 0 to 100 scale, 0 is no effect, 100 is complete control; approximately 10 days

Compound | Plant response rating, Barnyardgrass
N#Cc1cccc(Oc2ncc(F)cn2)c1OC/C=C/Cl [Compound 36] | 70

test system: kochia (Kochia scoparia); assay: Test A postemergence, kochia; type: in vivo; conditions: 31 g ai/ha, postemergence; 0 to 100 scale, 0 is no effect, 100 is complete control; approximately 10 days
Source text: as §1, §2

Compound | Plant response rating, Kochia
N#Cc1cccc(Oc2ncc(F)cn2)c1OC/C=C/Cl [Compound 36] | 80

same assay, conditions: 125 g ai/ha, postemergence; 0 to 100 scale, 0 is no effect, 100 is complete control; approximately 10 days

Compound | Plant response rating, Kochia
N#Cc1cccc(Oc2ncc(F)cn2)c1OC/C=C/Cl [Compound 36] | 90

test system: ragweed (common ragweed, Ambrosia elatior); assay: Test A postemergence, ragweed; type: in vivo; conditions: 31 g ai/ha, postemergence; 0 to 100 scale, 0 is no effect, 100 is complete control; approximately 10 days
Source text: as §1, §2

Compound | Plant response rating, Ragweed
N#Cc1cccc(Oc2ncc(F)cn2)c1OC/C=C/Cl [Compound 36] | 20

same assay, conditions: 125 g ai/ha, postemergence; 0 to 100 scale, 0 is no effect, 100 is complete control; approximately 10 days

Compound | Plant response rating, Ragweed
N#Cc1cccc(Oc2ncc(F)cn2)c1OC/C=C/Cl [Compound 36] | 40

test system: ryegrass, Italian (Italian ryegrass, Lolium multiflorum); assay: Test A postemergence, Italian ryegrass; type: in vivo; conditions: 31 g ai/ha, postemergence; 0 to 100 scale, 0 is no effect, 100 is complete control; approximately 10 days
Source text: as §1, §2

Compound | Plant response rating, Ryegrass, Italian
N#Cc1cccc(Oc2ncc(F)cn2)c1OC/C=C/Cl [Compound 36] | 0

same assay, conditions: 125 g ai/ha, postemergence; 0 to 100 scale, 0 is no effect, 100 is complete control; approximately 10 days

Compound | Plant response rating, Ryegrass, Italian
N#Cc1cccc(Oc2ncc(F)cn2)c1OC/C=C/Cl [Compound 36] | 20

test system: foxtail, giant (giant foxtail, Setaria faberii); assay: Test A postemergence, giant foxtail; type: in vivo; conditions: 31 g ai/ha, postemergence; 0 to 100 scale, 0 is no effect, 100 is complete control; approximately 10 days
Source text: as §1, §2

Compound | Plant response rating, Foxtail, Giant
N#Cc1cccc(Oc2ncc(F)cn2)c1OC/C=C/Cl [Compound 36] | 0

same assay, conditions: 125 g ai/ha, postemergence; 0 to 100 scale, 0 is no effect, 100 is complete control; approximately 10 days

Compound | Plant response rating, Foxtail, Giant
N#Cc1cccc(Oc2ncc(F)cn2)c1OC/C=C/Cl [Compound 36] | 50

test system: pigweed (Amaranthus retroflexus); assay: Test A postemergence, pigweed; type: in vivo; conditions: 31 g ai/ha, postemergence; 0 to 100 scale, 0 is no effect, 100 is complete control; approximately 10 days
Source text: as §1, §2

Compound | Plant response rating, Pigweed
N#Cc1cccc(Oc2ncc(F)cn2)c1OC/C=C/Cl [Compound 36] | 50

same assay, conditions: 125 g ai/ha, postemergence; 0 to 100 scale, 0 is no effect, 100 is complete control; approximately 10 days

Compound | Plant response rating, Pigweed
N#Cc1cccc(Oc2ncc(F)cn2)c1OC/C=C/Cl [Compound 36] | 50

test system: wheat (Triticum aestivum); assay: Test A postemergence, wheat; type: in vivo; conditions: 31 g ai/ha, postemergence; 0 to 100 scale, 0 is no effect, 100 is complete control; approximately 10 days
Source text: as §1, §2

Compound | Plant response rating, Wheat
N#Cc1cccc(Oc2ncc(F)cn2)c1OC/C=C/Cl [Compound 36] | 0

same assay, conditions: 125 g ai/ha, postemergence; 0 to 100 scale, 0 is no effect, 100 is complete control; approximately 10 days

Compound | Plant response rating, Wheat
N#Cc1cccc(Oc2ncc(F)cn2)c1OC/C=C/Cl [Compound 36] | 0

test system: corn (Zea mays); assay: Test A postemergence, corn; type: in vivo; conditions: 31 g ai/ha, postemergence; 0 to 100 scale, 0 is no effect, 100 is complete control; approximately 10 days
Source text: as §1, §2

Compound | Plant response rating, Corn
N#Cc1cccc(Oc2ncc(F)cn2)c1OC/C=C/Cl [Compound 36] | 0

same assay, conditions: 125 g ai/ha, postemergence; 0 to 100 scale, 0 is no effect, 100 is complete control; approximately 10 days

Compound | Plant response rating, Corn
N#Cc1cccc(Oc2ncc(F)cn2)c1OC/C=C/Cl [Compound 36] | 20

test system: blackgrass (Alopecurus myosuroides); assay: Test A postemergence, blackgrass; type: in vivo; conditions: 31 g ai/ha, postemergence; 0 to 100 scale, 0 is no effect, 100 is complete control; approximately 10 days
Source text: as §1, §2

Compound | Plant response rating, Blackgrass
N#Cc1cccc(Oc2ncc(F)cn2)c1OC/C=C/Cl [Compound 36] | 10

same assay, conditions: 125 g ai/ha, postemergence; 0 to 100 scale, 0 is no effect, 100 is complete control; approximately 10 days

Compound | Plant response rating, Blackgrass
N#Cc1cccc(Oc2ncc(F)cn2)c1OC/C=C/Cl [Compound 36] | 50

test system: galium (catchweed bedstraw, Galium aparine); assay: Test A postemergence, galium; type: in vivo; conditions: 31 g ai/ha, postemergence; 0 to 100 scale, 0 is no effect, 100 is complete control; approximately 10 days
Source text: as §1, §2

Compound | Plant response rating, Galium
N#Cc1cccc(Oc2ncc(F)cn2)c1OC/C=C/Cl [Compound 36] | 40

same assay, conditions: 125 g ai/ha, postemergence; 0 to 100 scale, 0 is no effect, 100 is complete control; approximately 10 days

Compound | Plant response rating, Galium
N#Cc1cccc(Oc2ncc(F)cn2)c1OC/C=C/Cl [Compound 36] | 50
